Consider three substances from patent US8871706B2, “Method for inhibiting inflammation and pre-inflammatory cytokine/chemokine expression using a ghrelin analogue” (Ipsen Pharma S.A.S., priority 2007, dated 2014).

In experiment [1] the test system is IL-1β and IL-1RI gene expression in the hypothalamus and brainstem. The experiment is described as follows: Continuous infusion in 5/6 nephrectomized rats: central inflammatory transcripts. Format: in vivo. To be noted: Sham/Saline 1.00. The method, then: (§1) F344/NTacfBR male rats (Taconic Farms, Inc., Germantown, N.Y., U.S.A.) were housed two to a cage, fed rat chow (diet 5001, Purina Mills, Inc., St. Louis, Mo., U.S.A.) and acclimated for at least three days prior to use.
(§2) A 5/6 nephrectomy was performed in two stages. The test subjects were initially anesthetized with standard rat cocktail and placed prone in a clean environment. A 1 cm posterior incision was made on the right flank through which the right kidney was located. For animals undergoing nephrectomy, the renal capsule was removed and the upper and lower third of the kidney was transected and the resultant wound cauterized leaving the middle third of the kidney with the renal artery and vein intact. For animals receiving a sham operation, the renal capsule was opened up and cauterized to simulate the manipulations performed in the nephrectomy. The external surgical wounds were closed by suturing and the test subject was isolated to facilitate recovery.
(§3) Nine days following the initial surgery, the animals were again anesthetized and placed prone in the surgical area. A 1 cm incision was made on the left side of the subject's abdomen and the left kidney was isolated. For animals undergoing nephrectomy, the renal capsule was removed and the vasculature was tied off by suturing. The vascular bundle was then transected distal to the suture and the entire kidney removed. Any residual bleeding was cauterized. For animals in the sham group, the renal capsule was removed and cauterized. The external surgical wounds were closed with suture. While still under anesthesia, osmotic mini-pumps were placed in all test subjects. A 1 cm incision was made in the midline overlying the posterior thorax at the level of the forelimbs and the underlying sub-cutaneous space was opened via blunt dissection. The osmotic minipumps were placed inside and the incision and closed with suture. This procedure marked the first day (“Day 0”) of treatment.
(§4) Each compound was dissolved in vehicle solution (2% inactivated rat serum, 5% Tween-80) sonicated and filtered through a […] syringe filter.
After sacrifice, blood, brain, stomach and muscle were collected. A subset of the rats had their hypothalami dissected out, preserved in RNAlater solution (Applied Biosystems, Inc., Foster City, Calif., U.S.A.) and stored at −70° C. for extraction of RNA and RT-PCR analysis. A subset of the rats had their hypothalami and brainstems dissected out, preserved in RNAlater solution and stored at −70° C. for extraction of RNA and RT-PCR analysis. Hypothalamic blocks were dissected by making coronal transections at the optic chiasm and at the intersection between the hypothalamus and the mammalary bodies and sagital transections along the optic tracks. Cortex was then removed at the level of the corpus callosom. Brainstem blocks were dissected by removal of the cerebellum and coronal transections at the rostral border of the pons and at the spinal cord.
One-way ANOVA was used to determine differences among the nephrectomy and sham groups using a Bonferoni post-hoc test; P<0.05 was considered significant. In the case of the serum cytokines, each individual set of data was considered by ANOVA and the composite of all of the cytokine levels were considered together after normalizing all levels to the Sham/Saline group using a mixed model analysis for a trend for cytokines values among the different groups. This model takes into account the propensity of some animals to have higher or lower cytokine levels across all of the different cytokines and accounts for within-sample variability.

For experiment [2], the system named is serum cytokines. Description: Continuous infusion of ghrelin analogues in 5/6 nephrectomized rats: serum cytokines. The format is in vivo. To be noted: 150 ηmol/kg/day s.c. osmotic mini-pump; for serum GM-CSF / serum IL-1-α (second listing) / serum IL-1α / serum IL-6 / serum IL-10 (anti-inflammatory cytokine) / serum TNF-α: nephrectomized rats; for change of serum IL-10 relative to the nephrectomy/saline group: CKD rats. How it is done:
as §1, §2, §3, §4
Rat serum samples were collected and tested for cytokines IL-1α, IL-1β, IL-2, IL-4, IL-6, IL-10, GM-CSF, INF-γ and TNF-α using a Bio-Plex rat cytokine 9-Plex assay (Bio-Rad Laboratories, Hercules, Calif., U.S.A.) according to the manufacturer's instructions for use thereof.
The pre-mixed standards were reconstituted in 0.5 ml of a Bio-Plex […] serum standard diluent generating a stock concentration of 50,000 pg/ml for each cytokine. The standard stock was serially diluted in the Bio-Plex rat serum standard diluent to generate eight points for a standard curve. The assay was performed in a 96 well filtration plate supplied with the assay kit. Pre-mixed beads (50 μl) coated with target capture antibodies were transferred to each well of the filtration plate and washed twice with Bio-Plex wash buffer. The samples were diluted (1:4) in the Bio-Plex serum sample diluent. Pre-mixed standards or diluted samples (50 μl) were added to each well containing washed beads. The plate was shaken and incubated at room temperature for thirty minutes at a low speed (300 rpm). After incubation and washing, pre-mixed biotin conjugated detection antibodies were added to each of the wells. The plate was thereafter incubated for approximately thirty minutes and shaken at a low speed (300 rpm). After incubation and washing, strepavidin-PE were added to each well. The incubation was terminated after shaking for ten minutes at room temperature. After washing, the beads were re-suspended in 125 μl of Bio-Plex assay buffer. Beads were read on the Bio-Plex suspension array system (Bio-Rad Laboratories, Hercules, Calif., U.S.A.). The accumulated data was analyzed using Bio-Plex Manager software version 3.0 with 5 PL curve fitting.
One-way ANOVA was used to determine differences among the nephrectomy and sham groups using a Bonferoni post-hoc test; P<0.05 was considered significant. […]

Experiment [3] concerns human peripheral blood monocytes. Description: LPS/cytokine assay in human peripheral blood mononuclear cells. Format: cell-based. The following applies: 30 minutes pre-incubation, LPS 100 ηg/ml, 6 hours; ELISA. How it is done:
Human Peripheral Blood Mononuclear Cells (cat #7200) were procured for the assay (Seracare Diagnostics, Gaithersburg, Md., U.S.A.). Frozen vials were thawed and washed once with Phosphate Buffered Saline (Thermo Fisher Scientific, Inc., Waltham, Mass., U.S.A.). Cells were then counted and plated into 96-well dishes. […] Plates were analyzed with a Spectramax® Reader using Softmax Pro software (Spectramax, Inc., Sunnyvale, Calif., U.S.A.).

Experiment [4] concerns LPS-induced endotoxemia. The experiment is described as follows: In vivo LPS/cytokine assay in a mouse model. Also on record: species or system mice. The following applies: 5 and 10 nmoles i.p. 10 minutes prior to 5 μg LPS i.p.; serum 2 hours post-LPS.
Method: In an effort to examine the ability of the novel ligands of native ghrelin of the instant application to modulate inflammatory cytokine expression in vivo, mice were treated with ghrelin prior to an LPS administration.
Male 22-24 g CD1 mice (Charles River Laboratories, Wilmington, Mass., U.S.A.) were used.
Mice were sacrificed 2 hours post-LPS challenge and serum was collected via heart puncture and stored −80° C.
Mouse serum was used with Lincoplex™ custom 7-plex immunoassay for TNF-α (FIG. 3), IL-1β, IL-6 (FIG. 6), IL-10 and GM-CSF (Linco Research, Inc., St. Charles, Mo., U.S.A.). The assay was performed according to the manufacturer's instructions. Plates were run on a Luminex® 200 analyzer (Luminex, Austin, Tex., U.S.A.) using Masterplex CT™ v1.0 software for acquisition and Masterplex™ QT v2.5 software for analysis (MiraiBio, Hitachi Software Engineering Co., Yokohama, JP).
Experiment [5] deals with mouse peritoneal macrophages. The experiment is described as follows: LPS-stimulated cytokine secretion from mouse peritoneal macrophages. The format is cell-based. To be noted: in vitro. How it is done: Mouse peritoneal macrophages were elicited by intraperitoneal (i. p.) injection of 2 ml of 4% Brewer's thioglycollate medium (Difco, Detroit, Mich., U.S.A.) into male BALB/c mice aged 6 to 10 weeks (Ace Animals, Inc., Boyertown, Pa., U.S.A.). Peritoneal exudate cells were obtained 72 hours after injection by peritoneal lavage with ice-cold RPMI 1640 medium (Sigma-Aldrich, St. Louis, Mo., U.S.A.). Peritoneal exudate cells containing lymphocytes and macrophages were washed twice and re-suspended in ice-cold RPMI 1640 medium supplemented with 2% heat-inactivated fetal calf serum “FCS” (Life Technologies, Rockville, Md., U.S.A.) and were seeded in flat-bottomed 96-well microtiter plates (Corning Glass, Corning, N.Y., U.S.A.) at 8×10^4 cells per well in a final volume 200 μl. The cells were incubated at 37° C. for 2 hours to adhere.

The subject of experiment [6] is TNBS-induced colitis. Description: Established colitis model (TNBS). Format: in vivo, mice. To be noted: single 50 nM dose ip on days 6, 7 and 8 post-TNBS. The method, then: In an effort to examine the ability of the novel ligands of native ghrelin of the instant application to reduce inflammation of the colon in vivo, inflammation was induced in a mouse model and thereafter said subjects were treated with a novel ghrelin analogue of the instant application.
(§5) Male SJL mice (Charles River Laboratories, Wilmington, Mass., U.S.A.) approximately 5 to 6 weeks of age were employed. The guidelines proposed by the committee for the Care of Laboratory Animal Resources Commission of Life Sciences-National Research Council were followed to minimize animal pain and distress. Each animal received rodent laboratory chow and ad libitum water.
Acute colon inflammation was induced in the test subjects by administering 3 mg of […] (Thermo Scientific Pierce Protein Research Products, Waltham, Mass., U.S.A.) (TNBS) in 50% ethanol via a catheter inserted intrarectally from the test subject's anus on the day the study commenced and then again approximately 7 days thereafter. Control mice received the same volume of 50% ethanol without the TNBS.
Body weight for all test subjects was measured every day. Macroscopic evaluation of colon inflammation was performed on the 9th day after inducing TNBS-induced colitis.
The colons of the sacrificed test subjects were removed and measured.

The subject of experiment [7] is TNBS-induced colitis. The experiment is described as follows: Acute colon inflammation model (TNBS-induced colitis). The format is in vivo, mice. How it is done: In an effort to examine the ability of the novel ligands of native ghrelin of the instant application to ameliorate inflammation of the colon in vivo, inflammation was induced in a mouse model and thereafter said subjects were treated with a novel ghrelin analogue of the instant application.
as §5
Acute colon inflammation was induced in the test subjects by administering 3 mg of […] (Thermo Scientific Pierce Protein Research Products, Waltham, Mass., U.S.A.) (TNBS) in 50% ethanol via a catheter inserted intrarectally from the test subject's anus. Control mice received the same volume of 50% ethanol without the TNBS. […] Five mice from both groups were sacrificed 4 days post-TNBS-induced challenge.
Body weight for all test subjects was measured every day. FIG. 27 Serum samples were tested for interferon-gamma by ELISA (Millipore, Inc., Billerica, Mass., U.S.A.). […]
The colons of the sacrificed test subjects at day 4 and day 10 were removed and measured.

The subject of experiment [8] is 3T3-L1 adipocytes. Description: In vitro cytokine lipolysis assay in 3T3-L1 adipocytes (TNF-α induced lipolysis, glycerol content). Format: cell-based. The following applies: 1, 10 or 100 ηM, 10 minutes pre-treatment; 20 ηg/ml recombinant murine TNF-α, 24 hours. How it is done: The claimed compounds were tested for their ability to ameliorate cytokine levels. […] In addition, it has been determined that extracellular glucose is required for TNF-α mediated adipocyte lipolysis (Green, A. et al., Diabetes, (2004), 53 (1):74-81). Glycerol, generated by triglyceride breakdown, is released into the extracellular space through aquaporin adipose. Extracellular glycerol is easily assayed by incubation with glycerol kinase (to produce glycerol phosphate), glycerol phosphate oxidase (to produce H2O2), and horseradish peroxidase in the presence of a calorimetric substrate. As such, free glycerol can be assayed as a marker for adipolysis.
In the assay protocol, 3T3-L1 adipocytes were permeabilized and preincubated with the ghrelin analogues of the present invention. In particular, 3T3-L1 preadipocytes were obtained from 3T3-L1 fibroblasts (ATCC Deposit No. CL-173 described in U.S. Pat. No. 4,003,789). […]
The glycerol content was determined using an Adipolysis Assay Kit (Millipore Corporation, Temecula, Calif., U.S.A.).

Turning to “H-Gly-Ser-Ser-Phe-Leu-Ser-Pro-Glu-His-Gln-Arg-Val-Gln-Gln-Arg-Lys-Glu-Ser-Lys-Lys-Pro-Pro-Ala-Lys-Leu-Gln-Pro-Arg-NH2 [hGhrelin(1-28)-NH2, reference compound]”, in experiment [1], the “expression of IL1-RI in the brainstem” value is on record as 0.72+/−0.12, the “transcript levels of IL-1R in the hypothalamus” value is on record as 0.78+/−0.26, the “transcript levels of IL-1β in the brainstem” value is reported as 1.27+/−0.60 and the “transcript levels of IL-1β in the hypothalamus” value is given as 0.98+/−0.46. For the same substance, in experiment [2], the “serum GM-CSF” value is 5.24+/−1.93, the “serum IL-1-α (second listing)” value is 49.52+/−10.03, the “serum IL-1α” value is on record as 3.92+/−2.39 and the “serum IL-6” value is given as 52.42+/−18.68. Moreover, in experiment [2], the “serum IL-10 (anti-inflammatory cytokine)” value was 242.41+/−27.51 and the “serum TNF-α” value was 34.71+/−14.00.
For “(Aib^2, Glu^3(NH-hexyl))hGhrelin(1-28)-NH2 (GXEFLSPEHQRVQQRKESKKPPAKLQPR; Aib2, Glu3 NH-hexyl, C-terminal amide; Ghrelin Analogue) [Example #13]”, in experiment [2], the “change of serum IL-10 relative to the nephrectomy/saline group” value is reported as “significant increase”, the “serum GM-CSF” value is 7.01+/−2.05, the “serum IL-1-α (second listing)” value is 57.37+/−7.48 and the “serum IL-1α” value is 3.50+/−2.49. Moreover, in experiment [2], the “serum IL-6” value was 83.65+/−21.71, the “serum IL-10 (anti-inflammatory cytokine)” value was 594.83+/−55.22 and the “serum TNF-α” value is on record as 47.04+/−3.36. In addition, in experiment [3], the “LPS-stimulated IL-6 secretion” value is “inhibition”, the “LPS-stimulated IL-10 secretion” value is recorded as “inhibition” and the “LPS-stimulated TNF-α secretion” value is given as “inhibition”.
With “H-Inp-D-Bal-D-Trp-Phe-Apc-NH2 [Example #27]”, in experiment [4], the “anti-inflammatory effect on LPS-induced endotoxemia (TNF-α, IL-6, IL-10 and IL-13 expression in vivo)” value is “inhibition of TNF-α, IL-6, IL-10 and IL-13 expression”. For the same substance, in experiment [5], the “LPS-stimulated IL-6 secretion” value is “inhibition” and the “LPS-stimulated TNF-α secretion” value is “inhibition”. Further, in experiment [6], the colitis in vivo entry is on record as “effectively inhibited” and the “colon size (length) of sacrificed test subjects” value is listed as “smaller colons”. In addition, in experiment [1], the “expression of IL1-RI in the brainstem” value is recorded as 0.75+/−0.18, the “transcript levels of IL-1R in the hypothalamus” value is given as 0.77+/−0.17, the “transcript levels of IL-1β in the brainstem” value is reported as 1.34+/−0.46 and the “transcript levels of IL-1β in the hypothalamus” value is recorded as 1.54+/−0.42. In addition, in experiment [2], the “change of serum IL-10 relative to the nephrectomy/saline group” value was “significant increase”, the “serum GM-CSF” value is on record as 8.01+/−2.83, the “serum IL-1-α (second listing)” value is reported as 46.58+/−9.87 and the “serum IL-1α” value is reported as 3.84+/−1.62. In addition, in experiment [2], the “serum IL-6” value was 98.41+/−36.66, the “serum IL-10 (anti-inflammatory cytokine)” value was 419.26+/−38.71 and the “serum TNF-α” value was 45.81+/−6.23. In experiment [7] (5 nmolar and 50 nmolar dose ip approximately 12 hours after TNBS, serum ELISA, day 4), the “IFN-γ production in vivo” value is listed as “inhibited”. Also, the “colon size (length) of sacrificed test subjects” value in experiment [7] (day 4 and day 10, 5 nM or 50 nM dose ip) is “smaller colons”. In addition, in experiment [8], the “lipolysis in the adipocytes induced by TNF-α (glycerol content)” value is “significantly inhibited”. In addition, in experiment [3], the “LPS-stimulated IL-6 secretion” value was “inhibition”, the “LPS-stimulated IL-10 secretion” value is on record as “inhibition” and the “LPS-stimulated TNF-α secretion” value is reported as “inhibition”.
